Values after ≈ are worked out from the molar mass of the structure shown.
tested on: not listed separately; assay: Clearance in human pooled hepatocytes assessed as per gram tissue at 0.5 uM measured up to 2 hrs by LC-MS/MS analysis; assay type: ADME, cell-based, Hepatocyte; conditions: not given

SMILES | CLH [mL/min/g]
CNC(=O)c1cc(C(=O)NCC[C@@H]2CNCCO2)cc2c1O[C@H](CF)[C@H]2c1ccccc1 | < 0.45
CNC(=O)c1cc(C(=O)N[C@@H]2C[C@H]2CO)cc2c1O[C@H](CF)[C@H]2c1ccccc1 | < 0.45

tested on: not listed separately; assay: Clearance in human pooled hepatocytes assessed as per gram tissue at 0.5 uM by LC-MS/MS analysis; assay type: ADME, cell-based, Hepatocyte; conditions: not given

SMILES | CLH [mL/min/g]
CNC(=O)c1cc(C(=O)NC2CC2)cc2c1O[C@H](C)[C@H]2c1ccccc1 | 1.42
CNC(=O)c1cc(C(=O)NC2CC2)cc2c1O[C@H](CO)[C@H]2c1ccccc1 | < 0.45
CNC(=O)c1cc(C(=O)NC)c2c(c1)[C@H](c1ccccc1)[C@@H](CF)O2 | < 0.45
CNC(=O)c1cc(C(=O)NC2CC2)cc2c1O[C@H](CF)[C@H]2c1ccccc1 | < 0.45

biological target: Bromodomain-containing protein 4 (Homo sapiens, UniProt O60885, Y97A); assay: Displacement of Alexa Fluor 647 labelled ligand from His6-tagged BRD4 BD2 (1 to 477 residues)/BD1 Y97A mutant (unknown origin) after 30 mins by TR-FRET assay; conditions: not given

SMILES | IC50 [nM]
CNC(=O)c1cc(C(=O)NCC[C@@H]2CNCCO2)cc2c1O[C@H](CF)[C@H]2c1ccccc1 | 39.8

tested on: not listed separately; assay: Permeability of compound by artificial membrane assay; assay type: ADME; conditions: PAMPA; read-out: permeability

SMILES | Papp [×10⁻⁶ cm/s]
CNC(=O)c1cc(C(=O)NC2CC2)cc2c1O[C@H](C)[C@H]2c1ccccc1 | 44
CNC(=O)c1cc(C(=O)N[C@@H]2C[C@H]2CO)cc2c1O[C@H](CF)[C@H]2c1ccccc1 | 7.3
CNC(=O)c1cc(C(=O)NC2CC2)cc2c1O[C@H](CO)[C@H]2c1ccccc1 | 26.6

biological target: serum albumin (Homo sapiens, UniProt P02768); assay: Binding affinity to human serum albumin; assay type: ADME; conditions: read-out: PB (converted)
Sequence (P02768 whole entry): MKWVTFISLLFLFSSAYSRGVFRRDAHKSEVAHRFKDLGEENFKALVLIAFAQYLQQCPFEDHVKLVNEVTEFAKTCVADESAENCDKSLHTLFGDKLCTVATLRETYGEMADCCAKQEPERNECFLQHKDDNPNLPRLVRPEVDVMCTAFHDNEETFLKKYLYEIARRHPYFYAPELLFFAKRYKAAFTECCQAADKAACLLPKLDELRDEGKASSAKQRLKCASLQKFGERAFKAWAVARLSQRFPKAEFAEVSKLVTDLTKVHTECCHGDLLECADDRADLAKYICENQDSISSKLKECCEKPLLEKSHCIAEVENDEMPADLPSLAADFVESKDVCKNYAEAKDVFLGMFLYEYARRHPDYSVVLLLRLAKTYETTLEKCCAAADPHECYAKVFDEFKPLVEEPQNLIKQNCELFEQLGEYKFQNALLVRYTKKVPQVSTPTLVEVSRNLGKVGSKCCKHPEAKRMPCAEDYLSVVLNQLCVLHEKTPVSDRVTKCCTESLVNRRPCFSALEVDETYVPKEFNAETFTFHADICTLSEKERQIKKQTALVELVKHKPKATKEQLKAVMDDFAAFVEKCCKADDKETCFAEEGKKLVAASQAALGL

SMILES | fraction unbound
CNC(=O)c1cc(C(=O)NC2CC2)cc2c1O[C@H](C)[C@H]2c1ccccc1 | 0.11
CNC(=O)c1cc(C(=O)NC2CC2)cc2c1O[C@H](CO)[C@H]2c1ccccc1 | 0.21

tested on: not listed separately; assay: Oral bioavailability in Wistar Han rat at 3 mg/kg administered via gavage and measured up to 7 hrs by LC-MS/MS analysis; assay type: ADME, organism-based; conditions: in vivo

SMILES | bioavailability [%]
CNC(=O)c1cc(C(=O)N[C@@H]2C[C@H]2CO)cc2c1O[C@H](CF)[C@H]2c1ccccc1 | 15
CNC(=O)c1cc(C(=O)NC2CC2)cc2c1O[C@H](CO)[C@H]2c1ccccc1 | 2

tested on: not listed separately; assay: Clearance in Wistar Han rat at 1 mg/kg administered as iv infusion for 1 hr and measured up to 7 hrs by LC-MS/MS analysis; assay type: ADME, organism-based; conditions: in vivo

SMILES | clearance [mL/min/kg]
CNC(=O)c1cc(C(=O)NC2CC2)cc2c1O[C@H](C)[C@H]2c1ccccc1 | 90
CNC(=O)c1cc(C(=O)N[C@@H]2C[C@H]2CO)cc2c1O[C@H](CF)[C@H]2c1ccccc1 | 98
CNC(=O)c1cc(C(=O)NC2CC2)cc2c1O[C@H](CO)[C@H]2c1ccccc1 | 74

tested on: not listed separately; assay: Clearance in Beagle dog hepatocytes assessed as per gram tissue at 0.5 uM measured up to 2 hrs by LC-MS/MS analysis; assay type: ADME, cell-based, Canis lupus familiaris, Hepatocyte; conditions: not given

SMILES | CLH [mL/min/g]
CNC(=O)c1cc(C(=O)NCC[C@@H]2CNCCO2)cc2c1O[C@H](CF)[C@H]2c1ccccc1 | < 0.65
CNC(=O)c1cc(C(=O)N[C@@H]2C[C@H]2CO)cc2c1O[C@H](CF)[C@H]2c1ccccc1 | < 0.65

tested on: not listed separately; assay: Chromatographic hydrophobicity index, log D of the compound in pH 7.4 ammonium acetate buffer/acetonitrile gradient by HPLC analysis; assay type: physicochemical; conditions: not given

SMILES | CHI
CNC(=O)c1cc(C(=O)NC2CC2)cc2c1O[C@H](C)[C@H]2c1ccccc1 | 4.24
CNC(=O)c1cc(C(=O)NCC[C@@H]2CNCCO2)cc2c1O[C@H](CF)[C@H]2c1ccccc1 | 2.18
CNC(=O)c1cc(C(=O)N[C@@H]2C[C@H]2CO)cc2c1O[C@H](CF)[C@H]2c1ccccc1 | 3
CNC(=O)c1cc(C(=O)NC2CC2)cc2c1O[C@H](CO)[C@H]2c1ccccc1 | 2.53
CNC(=O)c1cc(C(=O)NC)c2c(c1)[C@H](c1ccccc1)[C@@H](CF)O2 | 3.34
CNC(=O)c1cc(C(=O)NC2CC2)cc2c1O[C@H](CF)[C@H]2c1ccccc1 | 3.94

tested on: not listed separately; assay: Clearance in Wistar Han rat hepatocytes assessed as per gram tissue at 0.5 uM measured up to 1 hr by LC-MS/MS analysis; assay type: ADME, cell-based, Hepatocyte; conditions: not given

SMILES | CLH [mL/min/g]
CNC(=O)c1cc(C(=O)NC)c2c(c1)[C@H](c1ccccc1)[C@@H](CF)O2 | 3.02
CNC(=O)c1cc(C(=O)NC2CC2)cc2c1O[C@H](CF)[C@H]2c1ccccc1 | 3.2

tested on: not listed separately; assay: Clearance in Wistar Han rat hepatocytes assessed as per gram tissue at 0.5 uM by LC-MS/MS analysis; assay type: ADME, cell-based, Hepatocyte; conditions: not given

SMILES | CLH [mL/min/g]
CNC(=O)c1cc(C(=O)NC2CC2)cc2c1O[C@H](C)[C@H]2c1ccccc1 | 2.48
CNC(=O)c1cc(C(=O)NCC[C@@H]2CNCCO2)cc2c1O[C@H](CF)[C@H]2c1ccccc1 | 1.28
CNC(=O)c1cc(C(=O)N[C@@H]2C[C@H]2CO)cc2c1O[C@H](CF)[C@H]2c1ccccc1 | 1.65
CNC(=O)c1cc(C(=O)NC2CC2)cc2c1O[C@H](CO)[C@H]2c1ccccc1 | < 0.8

tested on: not listed separately; assay: Clearance in Beagle dog hepatocytes assessed as per gram tissue at 0.5 uM measured up to 1 hr by LC-MS/MS analysis; assay type: ADME, cell-based, Canis lupus familiaris, Hepatocyte; conditions: not given

SMILES | CLH [mL/min/g]
CNC(=O)c1cc(C(=O)NC2CC2)cc2c1O[C@H](CF)[C@H]2c1ccccc1 | < 1.26

tested on: not listed separately; assay: Volume of distribution at steady state in Wistar Han rat at 1 mg/kg administered as iv infusion for 1 hr and measured up to 7 hrs by LC-MS/MS analysis; assay type: ADME, organism-based; conditions: in vivo, read-out: Vdss

SMILES | Vd [L/kg]
CNC(=O)c1cc(C(=O)NC2CC2)cc2c1O[C@H](C)[C@H]2c1ccccc1 | 2.3
CNC(=O)c1cc(C(=O)N[C@@H]2C[C@H]2CO)cc2c1O[C@H](CF)[C@H]2c1ccccc1 | 1.7
CNC(=O)c1cc(C(=O)NC2CC2)cc2c1O[C@H](CO)[C@H]2c1ccccc1 | 1.4

tested on: not listed separately; assay: Half life in Wistar Han rat at 1 mg/kg administered as iv infusion for 1 hr and measured up to 7 hrs by LC-MS/MS analysis; assay type: ADME, organism-based; conditions: in vivo

SMILES | half-life [min]
CNC(=O)c1cc(C(=O)NC2CC2)cc2c1O[C@H](C)[C@H]2c1ccccc1 | 24
CNC(=O)c1cc(C(=O)N[C@@H]2C[C@H]2CO)cc2c1O[C@H](CF)[C@H]2c1ccccc1 | 30
CNC(=O)c1cc(C(=O)NC2CC2)cc2c1O[C@H](CO)[C@H]2c1ccccc1 | 24

tested on: Bromodomain-containing protein 4 (Homo sapiens), O60885 [UNDEFINED MUTATION]; assay: Selectivity index, ratio of IC50 for displacement of Alexa Fluor 647 labelled ligand from His6-tagged BRD4 BD1 (1 to 477 residues)/BD2 Y390A mutant (unknown origin) to IC50 for displacement of Alexa Fluor 647 labelled ligand from His6-tagged BRD4 BD2 (1 to 477 residues)/BD1 Y97A mutant (unknown origin); conditions: not given

SMILES | Ratio IC50
CNC(=O)c1cc(C(=O)NC2CC2)cc2c1O[C@H](C)[C@H]2c1ccccc1 | 1600
CNC(=O)c1cc(C(=O)NCC[C@@H]2CNCCO2)cc2c1O[C@H](CF)[C@H]2c1ccccc1 | 1200
CNC(=O)c1cc(C(=O)N[C@@H]2C[C@H]2CO)cc2c1O[C@H](CF)[C@H]2c1ccccc1 | 800

tested on: not listed separately; assay: Solubility of compound by CLND method; assay type: physicochemical; conditions: not given

SMILES | solubility kinetic [µg/mL]
CNC(=O)c1cc(C(=O)NC2CC2)cc2c1O[C@H](C)[C@H]2c1ccccc1 | 137 (≈ 391 µM)
CNC(=O)c1cc(C(=O)N[C@@H]2C[C@H]2CO)cc2c1O[C@H](CF)[C@H]2c1ccccc1 | 114 (≈ 286 µM)
CNC(=O)c1cc(C(=O)NC2CC2)cc2c1O[C@H](CO)[C@H]2c1ccccc1 | > 177

tested on: Blood; assay: Inhibition of LPS-induced MCP1 production in human whole blood preincubated for 30 mins followed by LPS addition measured after 24 hrs by immuno assay; assay type: functional, tissue-based; conditions: not given

SMILES | IC50 [nM]
CNC(=O)c1cc(C(=O)NC2CC2)cc2c1O[C@H](C)[C@H]2c1ccccc1 | 200
CNC(=O)c1cc(C(=O)NCC[C@@H]2CNCCO2)cc2c1O[C@H](CF)[C@H]2c1ccccc1 | 158
CNC(=O)c1cc(C(=O)N[C@@H]2C[C@H]2CO)cc2c1O[C@H](CF)[C@H]2c1ccccc1 | 200
CNC(=O)c1cc(C(=O)NC2CC2)cc2c1O[C@H](CO)[C@H]2c1ccccc1 | 794
CNC(=O)c1cc(C(=O)NC)c2c(c1)[C@H](c1ccccc1)[C@@H](CF)O2 | 200
CNC(=O)c1cc(C(=O)NC2CC2)cc2c1O[C@H](CF)[C@H]2c1ccccc1 | 200

biological target: Bromodomain-containing protein 4 (Homo sapiens, UniProt O60885, Y390A); assay: Displacement of Alexa Fluor 647 labelled ligand from His6-tagged BRD4 BD1 (1 to 477 residues)/BD2 Y390A mutant (unknown origin) after 30 mins by TR-FRET assay; conditions: not given

SMILES | IC50 [nM]
CNC(=O)c1cc(C(=O)NCC[C@@H]2CNCCO2)cc2c1O[C@H](CF)[C@H]2c1ccccc1 | 50100
CNC(=O)c1cc(C(=O)N[C@@H]2C[C@H]2CO)cc2c1O[C@H](CF)[C@H]2c1ccccc1 | 15800

tested on: PBMC; assay: Inhibition of LPS-induced MCP1 production in human PBMC; assay type: functional, cell-based; conditions: not given

SMILES | IC50 [nM]
CNC(=O)c1cc(C(=O)NC2CC2)cc2c1O[C@H](C)[C@H]2c1ccccc1 | 6.31

tested on: not listed separately; assay: Renal clearance in Wistar Han rat at 1 mg/kg administered as iv infusion for 1 hr and measured up to 7 hrs by LC-MS/MS analysis; assay type: ADME, organism-based; conditions: in vivo

SMILES | CL renal [mL/min/kg]
CNC(=O)c1cc(C(=O)NC2CC2)cc2c1O[C@H](C)[C@H]2c1ccccc1 | 0.2
CNC(=O)c1cc(C(=O)N[C@@H]2C[C@H]2CO)cc2c1O[C@H](CF)[C@H]2c1ccccc1 | 4
CNC(=O)c1cc(C(=O)NC2CC2)cc2c1O[C@H](CO)[C@H]2c1ccccc1 | 23

Source: ChEMBL document CHEMBL4619816, “GSK973 Is an Inhibitor of the Second Bromodomains (BD2s) of the Bromodomain and Extra-Terminal (BET) Family” (ACS Med Chem Lett, 2020)
